Patent US5641666A, “Soraphen A resistant fungi and acetyl-CoA carboxylase” (priority 1993, dated 1997)
Values after ≈ are worked out from the molar mass of the structure shown.

Assays:
acetyl-CoA carboxylase = conditions: cited from earlier work
[1] = test system: diploids from the backcrosses of soraphen A resistant yeast strains; test: Determination of the minimal inhibitory concentration (MIC) on YPD-SOR plates, diploids from backcrosses of soraphen A resistant strains; assay type: cell-based, Saccharomyces cerevisiae; conditions: diploids from backcrosses vs wild-type
Experimental: In a first step all of the mutants are backcrossed with the wild-type strain of the opposite mating type, the diploid strains are sporulated and the asci are subjected to tetrad analysis. From each cross at least six complete tetra are examined and all of them are found to segregate 2:2 for soraphen A resistance and soraphen A sensitivity. This indicates mutations at a single genetic locus.
In another step the MIC of the dipbids from the backcrosses is determined.
Yeast colonies are grown for 2 days at 30° C. on a YPD plate and replica pated on a set of YPD-SOR plates. The following soraphen A concentrations are used: 0 μg/ml, 0,35 μg/ml, 0,76 μg/ml, 1,5 μg/ml, 3,13 μg/ml 6,7 μg/ml, 15,45 μg/ml and 54,5 μg/ml. After growth for 24 hours at 30° C. the plates are inspected for growth.

YS 18 yeast cells = test: Growth curves of yeast in liquid YPD medium with soraphen A (OD600, viable cell titer); assay type: cell-based, Saccharomyces cerevisiae
Experimental: Saccharomyces cerevisiae strain YS 18 (MATeα; his 3-11, 3-15; leu 2-3, 2-112; ura 3-Δ5; can^R; cir^+) is chosen as the wild-type. YHV 18 (MATa; his 3-11, 3-15; leu 2-3, 2-112; ura 3-Δ5; canst; cir^+) is isolated after a mating type switch of YS 18 and is therefore isogenic.
100 ml YPD medium in a 500 ml flask is inoculated with about 10^7 YS 18 yeast cells/ml and incubated for growth at 180 rpm at 30° C. Before the addition of soraphen A at time point 0, the cells have already been incubated for 1 hour. The control is treated identically, but receives no soraphen A. Total cell numers are monitored by measuring the OD600. The number of viable cells called the […] is determined by plating on YPD plates. The number of soraphen A resistant cells is counted by plating on YPD-SOR plates containing the same soraphen A concentration as in the flask.

[2] = test system: strains YS 18 and YHV 18 (culture A); test: Plating of culture A on YPD-SOR-10; assay type: cell-based, Saccharomyces cerevisiae; conditions: 10 μg/ml soraphen A, 30° C., 3 days
Experimental: YPD-SOR-10 is YPD medium supplemented with 10 μg/ml soraphen A.
Each of the isogenic strains YS 18 and YHV 18 is grown in 5 ml of YPD to late exponential phase. The culture is diluted 10^4 fold to give culture A the viable cell number of which is determined. Twenty tubes each containing 5 ml of YPD are inoculated with 10 μl of culture A, which corresponds to about 10 cells, and are incubated at 28° C. until a density of 10^7 cells/ml is attained. 1 ml aliquots of each of the tubes are plated on YPD-SOR-10 and the plates are incubated at 30° C. for 3 days. To ensure isolation of independent mutants from each of the 20 YPD-SOR-10 plates only colonies with different shape or sizes are selected. Mutant colonies are restreaked twice on YPD before storing them as glycerol stock cultures at -70° C.
To exclude the presence of soraphen A resistant routants at the beginning of the cultivation of culture A, the remainder of culture A is plated on YPD-SOR-10 and incubated at 30° C. for 3 days.

bacteria = conditions: cited from earlier work
fungi = conditions: cited from earlier work

COC1/C=C/C(C)C2OC(O)(C(C)C(=O)OC(c3ccccc3)CCCCC1OC)C(OC)C(O)C2C (centres unmarked) [soraphen A]
interference with acetyl-CoA carboxylase (acetyl-CoA carboxylase): shown to interfere with acetyl-CoA carboxylase
sensitivity of the diploids compared with the wild-type strain [1]: None of the diploids is as sensitive to soraphen A as the wild-type strain
MIC (YS 18 yeast cells; Saccharomyces cerevisiae, YS 18 wild-type, YPD, 30° C., 180 rpm, read-out: minimal inhibitory concentration (MIC) as determined from the growth curves): 0.1 µg/mL (≈ 0.192 µM)
duration of complete inhibition of growth (YS 18 yeast cells; YS 18, YPD, 30° C., thereafter growth recovers due to soraphen A resistant mutants): approximately 40 hours
cell killing (viable cell counts) (YS 18 yeast cells; YS 18, during the first 20 hours): extensive cell killing occurs
growth of colonies [2]: No growth of colonies is observed
effect on bacteria (bacteria): without effect on bacteria
activity as a fungicide (fungi): strong activity as a fungicide
